# Where a name gives a salt, the structure may show the parent alone.
# Experiment: Solubility test of methanesulfonate of Compound represented by Formula (II″)
# Format: physicochemical
# Conditions: HPLC method A; for concentration in supernatant solution (solubility): 20 to 25 °C, slurry stirred over two hours; for concentration of crystalline form dissolved into the solution: Conditions in Example 2 (DMSO/NMM/THF/MeCN), 0 °C
# Procedure: Crystalline form of methanesulfonate of Compound represented by Formula (II″) and crystalline form of free form of Compound represented by Formula (II″) were suspended in tetrahydrofuran or acetonitrile, respectively. The slurries were stirred at 20° C. to 25° C. for over two hours, and then the concentration in each supernatant solution was measured (HPLC method A). The HPLC results of the concentration in each supernatant solution are indicated as Table 12.
# Moreover, the concentration of each crystalline form being dissolved into the solution at 0° C. in Step 1 (Step to obtain the crystalline form of methanesulfonate) and Step 2 (Step to obtain the crystalline form of free form) in Example 2 was measured by HPLC method A and compared (Table 12).
concentration in supernatant solution (solubility) (Acetonitrile) [%],concentration of crystalline form dissolved into the solution [%],concentration of crystalline form dissolved into the solution (listed as free form of Compound represented by (II″)) [%],concentration in supernatant solution (solubility) (Tetrahydrofuran) [%],concentration of crystalline form dissolved into the solution (listed as methanesulfonate of Compound represented by (II″)) [%],SMILES
0.3,15.7,15.7,3.6,–,"CC#CC(=O)c1ccc2ncnc(Nc3ccc(OCc4cccc(F)c4)c(Cl)c3)c2c1 [Free form of Formula (II″), 4-(3-chloro-4-(3-fluorobenzyloxy)phenylamino)-6-(1-oxo-2-butyn-1-yl)quinazoline]"
0.05,3.1,–,0.05,3.1,CC#CC(=O)c1ccc2ncnc(Nc3ccc(OCc4cccc(F)c4)c(Cl)c3)c2c1 [MsOH salt of Formula (II″)]
